In patent US9526720B2, “Modulators of hepatic lipoprotein metabolism” (The Broad Institute, Inc., priority 2012, dated 2016):

What was measured:
ApoB = assay: ELISA of secreted ApoB in HepG2 cells; format: cell-based, human; conditions: HepG2 cells
Method: (§1) Additional secondary assays were performed in HepG2 cells to further characterize the cellular response to treatment with select confirmed TRIB1 inducer hits. The results of the ELISA, CTG, and qPCR secondary assays are summarized in Table B. For all secondary assays, the experiments were performed using powders of freshly purified compounds.
(§2) To further characterize the relationship of TRIB1 induction and PCSK9 reduction, ELISAs were performed to measure the levels of secreted ApoB, PCSK9, and LDLR. […] As predicted treatment with TRIB1 inducer hits caused a decrease in ApoB levels detected by ELISA. In parallel effort, 3200 BIOA and NATP compounds were screened for PCSK9 expression inhibitors. Hits were defined as inducing greater than 3-fold downregulation of PCSK9, and 3.8% of the screened compounds were confirmed as hits. […] In further experiments, a strong correlation was confirmed between TRIB1 induction and PCSK9 repression in DOS Collection hits. ELISA analysis confirmed that treatment with TRIB1 inducers reduced the PCSK9 protein levels. LDLR protein levels were also analyzed by ELISA to determine whether compounds that modulate both TRIB1 and PCSK9 had any effect on LDLR protein levels.

LDLR [1] = assay: ELISA of LDLR protein in HepG2 cells; format: cell-based, human; conditions: HepG2 cells
Method: as §1, §2

PCSK9 [2] = assay: ELISA of secreted PCSK9 protein in HepG2 cells; format: cell-based, human; conditions: HepG2 cells
Method: as §1, §2

HepG2 cells = assay: Cell Titer Glo (CTG) cell viability assay; format: cell-based, human; design: key: A: Increase <2-fold; B: Increase >2-fold; X: Decrease <2-fold; Y: Decrease >2-fold; No significant change; conditions: cell viability (ATP)
Method: Cell viability was determined using a Cell Titer Glo (CTG) assay ([…]) after treatment with TRIB1 inducer compounds. In this assay, the number of viable cells in culture is based on quantitation of ATP, which indicates metabolically active cells. Addition of the reagent results in cell lysis and generation of a luminescent signal proportional to the amount of ATP present, which is directly proportional to the number of viable, metabolically active cells present in culture. Most TRIB1 inducer compounds had no significant effect on cell viability.

TRIB1 = assay: qPCR TRIB1 expression in HepG2 cells; format: cell-based, human; design: key to qPCR TRIB1: A: Increase <2-fold; B: Increase >2-fold; X: Decrease <2-fold; Y: Decrease >2-fold; No significant change; conditions: for fold induction at 10 µM: Homo sapiens, 20 h
Method: (§3) In the primary screen, HepG2 cells were plated in 384-well plates at 2000 cells per well and incubated for 20 hours with each compound in duplicate at 10 microM concentration. Then RNA was isolated, reverse-transcribed to cDNA, and stored at −80° C. Expression levels of TRIB1 and other target genes, such as SORT1 and PCSK9, were determined by quantitative PCR. Relative gene expression level was normalized to expression of the housekeeping gene, GAPDH. A “hit” was defined as those compounds that caused a greater than 2-fold increase in relative target gene expression when normalized to GAPDH expression, compared to DMSO-treated control. Using these criteria, 130 hits were identified for TRIB1 (0.8% hit rate).
(§4) Further analysis of the expression levels of various proteins in the cholesterol and triglyceride biosynthetic pathways in response to TRIB1 inducer treatment was performed. In particular, transcript levels of additional lipoprotein metabolism pathway proteins SCAP, SREBF1, SREBF2, HMGCR, HMGCS, SCD1, FASN and MTTP were assessed by qPCR, along with TRIB1, LDLR, and PCSK9. The gene expression profile for the same subset of genes was also assessed after treatment with the statin atorvastatin (Lipitor), commonly used in therapy for hypercholesterolemia and other cardiovascular diseases.
(§5) The kinetics of the modulation of TRIB1, LDLR, PCSK9 and MTTP gene expression after treatment by select TRIB1 inducer compounds was monitored by qPCR analysis (FIG. 4). RNA was extracted from cells at various timepoints over 28 hours of treatment (0, 2, 4, 6, 8, 24, 28 hours). Specifically, compounds 12a and 14a induced transcriptional responses over time similar to those produced by berberine, a plant alkaloid used in Chinese medicine. […] Both compound 12a and compound 14a induce TRIB1 and LDLR and repress PCSK9 and MTTP expression with similar kinetics and similar fold change as berberine Importantly, both compounds induce these gene expression changes at much lower concentrations than berberine. […] This increased potency indicates the potential therapeutic efficacy of such compounds for treatment of cardiovascular diseases, particularly hypercholesterolemia and related conditions.

SCAP = assay: qPCR SCAP transcript level in HepG2 cells; format: cell-based, human; design: key: A: Increase <2-fold; B: Increase >2-fold; X: Decrease <2-fold; Y: Decrease >2-fold; No significant change
Method: as §3, §4

SREBF1 = assay: qPCR SREBF1 transcript level in HepG2 cells; format: cell-based, human; design: key: A: Increase <2-fold; B: Increase >2-fold; X: Decrease <2-fold; Y: Decrease >2-fold; No significant change
Method: as §3, §4

SREBF2 = assay: qPCR SREBF2 transcript level in HepG2 cells; format: cell-based, human; design: key: A: Increase <2-fold; B: Increase >2-fold; X: Decrease <2-fold; Y: Decrease >2-fold; No significant change
Method: as §3, §4

PCSK9 [3] = assay: qPCR PCSK9 expression in HepG2 cells; format: cell-based, human; conditions: for fold induction at 10 µM: Homo sapiens, 20 h, HepG2 cells
Method: as §3, §4, §5

LDLR [4] = assay: qPCR LDLR expression in HepG2 cells; format: cell-based, human; conditions: for qPCR LDLR: HepG2 cells
Method: as §3, §4, §5

HMGCR = assay: qPCR HMGCR transcript level in HepG2 cells; format: cell-based, human; design: key: A: Increase <2-fold; B: Increase >2-fold; X: Decrease <2-fold; Y: Decrease >2-fold; No significant change
Method: as §3, §4

HMGCS = assay: qPCR HMGCS transcript level in HepG2 cells; format: cell-based; conditions: Homo sapiens, 20 h
Method: as §3, §4

FASN = assay: qPCR FASN transcript level in HepG2 cells; format: cell-based; conditions: Homo sapiens, 20 h
Method: as §3, §4

SCD1 = assay: qPCR SCD1 transcript level in HepG2 cells; format: cell-based; conditions: Homo sapiens, 20 h
Method: as §3, §4

SMILES	ELISA ApoB (ApoB)	ELISA LDLR (LDLR [1])	ELISA PCSK9 (PCSK9 [2])	CTG (HepG2 cells)	fold induction at 10 µM (TRIB1; HepG2 cells)	qPCR SCAP (SCAP)	qPCR SREBF1 (SREBF1)	qPCR SREBF2 (SREBF2)	fold induction at 10 µM (PCSK9 [3])	qPCR LDLR (LDLR [4])	qPCR HMGCR (HMGCR)	fold induction at 10 µM (HMGCS)	fold induction at 10 µM (FASN)	fold induction at 10 µM (SCD1)	TRIB1 expression (in words) (TRIB1; HepG2, qPCR)	qPCR TRIB1 (TRIB1; HepG2 cells)	increase of PCSK9 mRNA levels (PCSK9 [3]; time course, HepG2) [fold]	increase of LDLR mRNA levels (LDLR [4]; time course, HepG2) [fold]
O=C(C[C@H]1CC[C@@H]2[C@H](COC[C@H](O)CN2Cc2ccc(Oc3ccccc3)cc2)O1)N1CCc2ccccc2C1 [Compound 9a]	Y (Decrease >2-fold)	B (Increase >2-fold)	Y (Decrease >2-fold)	X (Decrease <2-fold)	> 2	N	N	B (Increase >2-fold)	> 2	B (Increase >2-fold)	Y (Decrease >2-fold)	> 2	> 2	> 2				
O=C(C[C@@H]1CC[C@H]2[C@@H](COC[C@H](O)CN2Cc2ccc(Oc3ccccc3)cc2)O1)N1CCc2ccccc2C1 [Compound 6a]	Y (Decrease >2-fold)	A (Increase <2-fold)	Y (Decrease >2-fold)	N	> 2	N	N	N	> 2	A (Increase <2-fold)	N	> 2	> 2	> 2				
O=C(C[C@H]1C[C@H]2c3cc(NC(=O)c4ccc5c(c4)OCO5)ccc3O[C@H]2[C@H](CO)O1)NCc1ccc(Oc2ccccc2)cc1 [Compound 11a]	Y (Decrease >2-fold)	B (Increase >2-fold)	Y (Decrease >2-fold)	Y (Decrease >2-fold)	> 2	N	Y (Decrease >2-fold)	Y (Decrease >2-fold)	> 2	B (Increase >2-fold)	Y (Decrease >2-fold)	> 2	> 2	> 2				
O=C(C[C@H]1C[C@H]2c3cc(NS(=O)(=O)c4ccc(F)cc4)ccc3O[C@H]2[C@H](CO)O1)NCc1ccc(Oc2ccccc2)cc1 [Compound 13a]	Y (Decrease >2-fold)	X (Decrease <2-fold)	Y (Decrease >2-fold)	N	> 2	N	N	N	> 2	B (Increase >2-fold)	Y (Decrease >2-fold)	> 2	< 2	> 2				
O=C(C[C@@H]1CC[C@@H]2[C@H](COC[C@@H](O)CN2CCC(F)(F)F)O1)NCc1ccc(Oc2ccccc2)cc1 [Compound 8a]	Y (Decrease >2-fold)	B (Increase >2-fold)	X (Decrease <2-fold)	N	> 2	N	N	N	> 2	B (Increase >2-fold)	Y (Decrease >2-fold)	> 2	< 2	< 2				
CC(C)c1c(C(=O)Nc2ccccc2)c(-c2ccccc2)c(-c2ccc(F)cc2)n1CC[C@@H](O)C[C@@H](O)CC(=O)O [Atorvastatin, atorvastatin, reference compound]	X (Decrease <2-fold)	A (Increase <2-fold)	A (Increase <2-fold)	N		N	N	A (Increase <2-fold)	> 2	B (Increase >2-fold)	N	< 2	< 2	< 2	did not significantly affect	N	~2	~2
